The values below come from ChEMBL document CHEMBL3351749, “Synthesis, in vitro antimicrobial and cytotoxic activities of new carbazole derivatives of ursolic acid” (Bioorg Med Chem Lett, 2015).

The test system of one test is Candida albicans. The test can be described thus: Antimicrobial activity against Candida albicans CGMCC2.2086 after 48 hrs by modified microdilution method. The class given is functional. The settings on record: CGMCC2.2086, 48 h.
For a further test, the system named is Bacillus subtilis. The experiment in a line: Antimicrobial activity against Bacillus subtilis CGMCC1.1162 after 24 hrs by modified microdilution method. The class given is functional. As to conditions: CGMCC1.1162, 24 h.
The next test has as its system Escherichia coli. The experiment in a line: Antimicrobial activity against Escherichia coli CGMCC1.1571 after 24 hrs by modified microdilution method. The class given is functional. The settings on record: CGMCC1.1571, 24 h.
In the next test the test system is Pseudomonas fluorescens. The experiment in a line: Antimicrobial activity against Pseudomonas fluorescens CGMCC1.1828 after 24 hrs by modified microdilution method. The class given is functional. As to conditions: CGMCC1.1828, 24 h.
A short description of test [1]: Cytotoxicity against human […] cells assessed as cell survival after 48 hrs by MTT assay. Type of test: functional, cell-based.
The subject of the next test is Staphylococcus aureus. The test can be described thus: Antimicrobial activity against Staphylococcus aureus CGMCC1.1361 after 24 hrs by modified microdilution method. As to conditions: CGMCC1.1361, 24 h. The class given is functional.
Another test has as its system Aspergillus niger. The experiment in a line: Antimicrobial activity against Aspergillus niger CGMCC3.316 after 48 hrs by modified microdilution method. The class given is functional. The settings on record: CGMCC3.316, 48 h.
A further test concerns Candida tropicalis. The test can be described thus: Antimicrobial activity against Candida tropicalis CGMCC2.3967 after 48 hrs by modified microdilution method. The class given is functional. As to conditions: CGMCC2.3967, 48 h.
A further test concerns HepG2. The test can be described thus: Cytotoxicity against human HepG2 cells assessed as cell survival after 48 hrs by MTT assay. The settings on record: HepG2, 48 h. Type of test: functional, cell-based.
Test [2] in a line: Cytotoxicity against human LO2 cells assessed as cell survival after 48 hrs by MTT assay. The class given is cell-based. As to conditions: L02, 48 h.

Converted amounts (≈) assume the structure as drawn.

In the case of `C[C@H]1[C@H](C)CC[C@]2(C(=O)O)CC[C@]3(C)C(=CC[C@@H]4[C@@]5(C)Cc6c([nH]c7ccc(Cl)cc67)C(C)(C)[C@@H]5CC[C@]43C)[C@H]12`, the MIC was over 100 µg/mL against Candida albicans; 31.2 µg/mL (≈ 55.5 µM) against Bacillus subtilis; 31.2 µg/mL (≈ 55.5 µM) with Escherichia coli; 31.2 µg/mL (≈ 55.5 µM) in the test on Pseudomonas fluorescens; 31.2 µg/mL (≈ 55.5 µM) in the test with Staphylococcus aureus; over 100 µg/mL against Aspergillus niger. Also, the MIC with Candida tropicalis was over 100 µg/mL. Besides, the IC50 in test [1] was found to be 29.9 µM; with HepG2 it was 30.9 µM.

On to `C[C@H]1[C@H](C)CC[C@]2(C(=O)O)CC[C@]3(C)C(=CC[C@@H]4[C@@]5(C)Cc6c([nH]c7ccc(Br)cc67)C(C)(C)[C@@H]5CC[C@]43C)[C@H]12`, for which the MIC was found to be 62.5 µg/mL (≈ 103 µM) in the test on Candida albicans; 31.2 µg/mL (≈ 51.4 µM) against Bacillus subtilis; 62.5 µg/mL (≈ 103 µM) with Escherichia coli; 62.5 µg/mL (≈ 103 µM) in the test with Pseudomonas fluorescens; 62.5 µg/mL (≈ 103 µM) against Staphylococcus aureus; 31.2 µg/mL (≈ 51.4 µM) against Aspergillus niger. The MIC in the test on Candida tropicalis amounted to 62.5 µg/mL (≈ 103 µM). In addition, the IC50 in test [1] was 62.6 µM; with HepG2, 38.4 µM.

With `C[C@H]1[C@H](C)CC[C@]2(C(=O)O)CC[C@]3(C)C(=CC[C@@H]4[C@@]5(C)Cc6c([nH]c7ccccc67)C(C)(C)[C@@H]5CC[C@]43C)[C@H]12`, the MIC against Candida albicans was over 100 µg/mL; with Bacillus subtilis, 15.6 µg/mL (≈ 29.6 µM); against Escherichia coli, 15.6 µg/mL (≈ 29.6 µM); against Pseudomonas fluorescens, 15.6 µg/mL (≈ 29.6 µM); against Staphylococcus aureus, 31.2 µg/mL (≈ 59.1 µM); in the test with Aspergillus niger it was over 100 µg/mL. In the test with Candida tropicalis, this compound yielded an MIC of over 100 µg/mL. Also, the figures for the half-inhibitory concentration (IC50) (in [1]; in the test with HepG2) were 40.4 µM and 25.8 µM, respectively.

Take `C[C@H]1[C@H](C)CC[C@]2(C(=O)O)CC[C@]3(C)C(=CC[C@@H]4[C@@]5(C)Cc6c([nH]c7ccc(F)cc67)C(C)(C)[C@@H]5CC[C@]43C)[C@H]12`: the MIC in the test with Candida albicans amounted to 62.5 µg/mL (≈ 115 µM); in the test with Bacillus subtilis, 15.6 µg/mL (≈ 28.6 µM); in the test with Escherichia coli it was 15.6 µg/mL (≈ 28.6 µM); with Pseudomonas fluorescens, 31.2 µg/mL (≈ 57.2 µM); against Staphylococcus aureus it was 15.6 µg/mL (≈ 28.6 µM); with Aspergillus niger, 62.5 µg/mL (≈ 115 µM). The same compound gave an MIC against Candida tropicalis of over 100 µg/mL. In addition, the figures for the IC50 (in test [1]; with HepG2) were 16.3 µM and 15.2 µM, respectively.

Consider `Cc1ccc2[nH]c3c(c2c1)C[C@]1(C)[C@H]2CC=C4[C@@H]5[C@@H](C)[C@H](C)CC[C@]5(C(=O)O)CC[C@@]4(C)[C@]2(C)CC[C@H]1C3(C)C`, for which the MIC was over 100 µg/mL in the test on Candida albicans; 62.5 µg/mL (≈ 115 µM) in the test with Bacillus subtilis; 31.2 µg/mL (≈ 57.6 µM) in the test with Escherichia coli; 62.5 µg/mL (≈ 115 µM) against Pseudomonas fluorescens; 62.5 µg/mL (≈ 115 µM) against Staphylococcus aureus; over 100 µg/mL in the test with Aspergillus niger. This compound also came in with a minimum inhibitory concentration (MIC) against Candida tropicalis of over 100 µg/mL. Moreover, the half-inhibitory concentration (IC50) is 13.8 µM in test [1] and 17 µM with HepG2.

With `COc1ccc2[nH]c3c(c2c1)C[C@]1(C)[C@H]2CC=C4[C@@H]5[C@@H](C)[C@H](C)CC[C@]5(C(=O)O)CC[C@@]4(C)[C@]2(C)CC[C@H]1C3(C)C`, the minimum inhibitory concentration (MIC) against Candida albicans was over 100 µg/mL; in the test on Bacillus subtilis, 31.2 µg/mL (≈ 55.9 µM); against Escherichia coli, 31.2 µg/mL (≈ 55.9 µM); with Pseudomonas fluorescens, 62.5 µg/mL (≈ 112 µM); with Staphylococcus aureus, 31.2 µg/mL (≈ 55.9 µM); with Aspergillus niger it was over 100 µg/mL. In addition, the MIC against Candida tropicalis turned out to be 62.5 µg/mL (≈ 112 µM). The IC50 in test [1] turned out to be 31.7 µM; with HepG2 it was 34.6 µM.

On to `COc1cccc2c3c([nH]c12)C(C)(C)[C@@H]1CC[C@]2(C)[C@H](CC=C4[C@@H]5[C@@H](C)[C@H](C)CC[C@]5(C(=O)O)CC[C@]42C)[C@@]1(C)C3`, for which the MIC against Candida albicans is over 100 µg/mL; with Bacillus subtilis, 62.5 µg/mL (≈ 112 µM); with Escherichia coli, 62.5 µg/mL (≈ 112 µM); against Pseudomonas fluorescens, 62.5 µg/mL (≈ 112 µM); in the test on Staphylococcus aureus, 62.5 µg/mL (≈ 112 µM); against Aspergillus niger it was over 100 µg/mL. The compound also showed an MIC with Candida tropicalis of over 100 µg/mL. Also, the IC50 (in [1]; in the test on HepG2) was over 100 µM throughout.

On to `Cc1ccc2[nH]c3c(c2c1)C[C@]1(C)[C@H]2CC=C4[C@@H]5[C@@H](C)[C@H](C)CC[C@]5(C(=O)NCCCN(C)C)CC[C@@]4(C)[C@]2(C)CC[C@H]1C3(C)C`, for which the MIC with Candida albicans was over 100 µg/mL; against Bacillus subtilis, 15.6 µg/mL (≈ 24.9 µM); against Escherichia coli, 31.2 µg/mL (≈ 49.8 µM); with Pseudomonas fluorescens, 31.2 µg/mL (≈ 49.8 µM); in the test with Staphylococcus aureus it was 31.2 µg/mL (≈ 49.8 µM); in the test with Aspergillus niger it was 62.5 µg/mL (≈ 99.8 µM). The minimal inhibitory concentration (MIC) in the test on Candida tropicalis was over 100 µg/mL. Moreover, the IC50 is 1.08 µM in [1], 5.75 µM in test [2] and 1.26 µM in the test with HepG2.

With `C[C@H]1[C@H](C)CC[C@]2(C(=O)O)CC[C@]3(C)C(=CC[C@@H]4[C@@]5(C)CCC(=O)C(C)(C)[C@@H]5CC[C@]43C)[C@H]12` [URSONIC ACID], the MIC against Candida albicans is over 100 µg/mL; in the test with Bacillus subtilis, 31.2 µg/mL (≈ 68.6 µM); against Escherichia coli, 31.2 µg/mL (≈ 68.6 µM); against Pseudomonas fluorescens, 62.5 µg/mL (≈ 137 µM); in the test with Staphylococcus aureus, 62.5 µg/mL (≈ 137 µM); against Aspergillus niger, over 100 µg/mL. The compound also had an MIC against Candida tropicalis of over 100 µg/mL. In addition, the IC50 (in [1]; in the test with HepG2) was over 100 µM each time.
